Experimental data from patent publication US5133908A, “Process for the preparation of dispersible colloidal systems of a substance in the form of nanoparticles” (Centre National de la Recherche Scientifique (CNRS), priority 1986, dated 1992).

Key:
[1] = system: bovine serum albumin (BSA) nanoparticles; assay: level of binding of active principle to BSA nanoparticles, ultracentrifugation; type: physicochemical; conditions: for level of binding of the sodium salicylate to the nanoparticles: of the amount used
Procedure: (§1) Increasing amounts (from 0.25 g to 2.50 g) of sodium salicylate are added to nanoparticles prepared according to example 1 (HSA) or according to example 5 (BSA). The level of binding of the sodium salicylate to the nanoparticles, measured after ultracentrifugation, is 60% of the amount used, irrespective of the amount of active principle added.
(§2) The procedure uses as in example 1 (1 g of HSA) or of example 5 (1 g of BSA), but carried out in the presence of 0.50 g of sodium salicylate dissolved in phase 1. The mean size of the nanoparticles is 200 nm with a mean dispersion index of 0.5. The level of binding of the sodium salicylate to the nanoparticles, measured after ultracentrifugation, is 60% of the amount used.
(§3) 50 mg of doxorubicin hydrochloride are added to nanoparticles prepared according to example 1 (HSA) or according to example 5 (BSA). The level of binding of doxorubicin to the nanoparticles, measured after ultracentrifugation, is 90% of the quantity used.

[2] = system: human serum albumin (HSA) nanoparticles; assay: level of binding of active principle to HSA nanoparticles, ultracentrifugation; type: physicochemical; conditions: for level of binding of the sodium salicylate to the nanoparticles: of the amount used
Procedure: as §1, §2, §3

| SMILES | level of binding of doxorubicin to the nanoparticles ([1]; BSA nanoparticles, of the quantity used, 50 mg doxorubicin hydrochloride added) [%] | level of binding of doxorubicin to the nanoparticles ([2]; HSA nanoparticles, of the quantity used, 50 mg doxorubicin hydrochloride added) [%] | level of binding of the sodium salicylate to the nanoparticles ([1]; BSA nanoparticles, 0.25 g to 2.50 g added to formed nanoparticles, irrespective of amount) [%] | level of binding of the sodium salicylate to the nanoparticles ([1]; BSA, 0.50 g dissolved in phase 1) [%] | level of binding of the sodium salicylate to the nanoparticles ([2]; HSA nanoparticles, 0.25 g to 2.50 g added to formed nanoparticles, irrespective of amount) [%] | level of binding of the sodium salicylate to the nanoparticles ([2]; HSA, 0.50 g dissolved in phase 1) [%] |
| --- | --- | --- | --- | --- | --- | --- |
| COc1cccc2c1C(=O)c1c(O)c3c(c(O)c1C2=O)C[C@@](O)(C(=O)CO)C[C@@H]3O[C@H]1C[C@H](N)[C@H](O)[C@H](C)O1 [doxorubicin] | 90 | 90 |  |  |  |  |
| O=C([O-])c1ccccc1O.[Na+] [sodium salicylate] |  |  | 60 | 60 | 60 | 60 |
